Among the data in ChEMBL document CHEMBL1149074, “Eusynstyelamide, a highly modified dimer peptide from the ascidian Eusynstyela misakiensis” (J Nat Prod, 1994) are Activity values, retold here.

The assay deals with HCT-116. The assay is described as follows: Cytotoxicity against human HCT116 cells upto 100 ug/ml after 72 hrs by XTT assay. The assay is classed as functional, cell-based. (In general: Tetrazolium assays rely on reduction of a dye to a coloured formazan, in cell work by metabolically active cells.)

With `N=C(N)NCCCCNC(=O)C(O)(O)C(c1c[nH]c2cc(Br)ccc12)C(O)(Cc1c[nH]c2cc(Br)ccc12)C(=O)NCCCCNC(=N)N` (stereo unspecified), the Activity entry was “Not toxic”.
